Entries after “also recorded” stand apart in the source; their conditions may differ.
Tests used:
[1] = In vivo pharmacokinetics in sheep; details: preliminary data, compared with DALDA and [Dmt1]DALDA
Protocol: Five or more days were allowed for recovery from surgery prior to experimental studies.
In vivo pharmacokinetic studies In order to avoid the rapid distribution phase associated with intravenous bolus administration, all three peptides were administered as constant rate intravenous infusions to sheep. […] DALDA (0.6 mg/kg/hr) and [Dmt^1]DALDA (0.06 mg/kg/hr) were, therefore, infused via the venous catheter for a period of 4 hr. […] The current limit of sensitivity of the analytical method prevented the use of an even lower dose of [Dmt^1]DALDA. Blood samples (5 ml) were collected from the arterial catheter at 0, 1, 2, 3, 3.5, 4, 4.25, 4.5, 5, 6 and 7 hr.
Pharmacokinetic Analyses Plasma levels of DAMGO, DALDA and [Dmt^1]DALDA during and after the 4 h infusion were subjected to compartmental analysis using nonlinear regression (WINNONLIN). The derived pharmacokinetic constants were used to calculate the apparent volume of distribution at steady state (Vd), elimination half-life (t1/2) and clearance (CL).

[2] = system: Male Sprague-Dawley rats; assay: Rat tail-flick test, antinociceptive effects after intrathecal administration; format: in vivo; details: yohimbine 100 μg alone, intrathecal
Protocol: Male Sprague-Dawley rats (300-350 g) were used.
Under light halothane anesthesia a needle connected to a Hamilton syringe was inserted percutaneously between spinal processes of the third and fourth lumbar vertebrae into the intrathecal space. A quick flick of the tail was observed when the tip of the needle entered the intrathecal space and was used as an indicator of successful puncture (Mestre et al., 1994). Drugs were delivered in a volume of 5 μl.
Intrathecal catheterization was performed at least two days prior to the experiment as previously described (Shimoyama et al., 1996). Briefly, under halothane anesthesia, a PE-10 tube was inserted through a small hole made in the atlanto-occipital membrane and threaded 8.5 cm down the intrathecal space to the lumbosacral level of the spinal cord. Drugs were delivered via the catheter in a volume of 5 μl, followed by 10 μl saline to flush the catheter.
To assess the antinociceptive effects of the opioids, the tail-flick test was used. Radiant heat was applied to the tail at 5-8 cm from the tip using a tail-flick apparatus (IITC, Woodland Hills, Calif.). The time from the onset of the heat to the withdrawal of the tail (tail-flick latency) was measured. The intensity of the radiant heat was adjusted so that baseline latencies would fall between 2.5 and 3.5 seconds. To avoid tissue damage the heat stimulus was discontinued after seven seconds. A baseline latency was obtained for each animal prior to the administration of any drug. Subsequent response latencies were determined at designated time points. Analgesic testing was performed by a blinded investigator.
Cumulative dose-response studies were performed for each drug using the tail-flick test (Shimoyama et al., 1996), (Shimoyama et al., 1997). Each drug was tested in a group of ten rats. After measuring the baseline latencies, increasing doses of each drug were administered via an intrathecal catheter until each animal in the group became an analgesic responder. An analgesic responder was defined as one whose response tail-flick latency was two or more times the value of the baseline latency. The response latency after each dosing was determined at peak analgesia, which was 15, 30 and 45 min after the administration of the MOR, DALDA and [Dmt^1]DALDA, respectively (based on preliminary studies). Any subsequent dosing was performed immediately after the determination of response latency. The percentage of analgesic responders in the group of rats for each cumulative dose was calculated, and a cumulative dose-response curve was constructed. The dose-response data were analyzed by the BLISS-21 computer program. This program maximized the log-likelihood function to fit a parallel set of gaussian normal sigmoid curves to the dose-response data and provides ED50 values, 95% confidence interval (CI) and relative potency estimates (Umans and Inturrisi, 1981).
The effect of naloxone on the antinociceptive effects of intrathecal MOR, DALDA and [Dmt^1]DALDA was examined. An equipotent dose (3 times the ED50 value determined in Study 1) of MOR, DALDA or [Dmt^1]DALDA was given via an intrathecal catheter. Tail-flick latencies were measured prior to the administration of any drug and at the time of peak analgesia for each compound (at 15, 30 and 45 minutes after administration, for MOR, DALDA and [Dmt^1]DALDA, respectively). Naloxone hydrochloride at a dose of 82.5 nmol or saline was administered via the intrathecal catheter 10 minutes prior to the second tail-flick testing. Four rats were tested for each combination of drugs. Data were analyzed using the paired t-test.
A dose 3 times the ED50 value of MOR, DALDA, or [Dmt^1]DALDA was administered intrathecally. Tail-flick latencies were measured prior to the administration of any drug (=baseline latency) and at the time of peak analgesia (=response latency). […]

Structure (SMILES) | elimination in sheep [1] | effect on tail-flick latency [2]
C[C@@H](NC(=O)[C@@H](N)Cc1ccc(O)cc1)C(=O)NCC(=O)N(C)[C@@H](Cc1ccccc1)C(=O)NCCO [DAMGO] | much more rapid elimination | –
COC(=O)[C@@H]1[C@H]2C[C@H]3c4[nH]c5ccccc5c4CCN3C[C@@H]2CC[C@@H]1O [Yohimbine, yohimbine, reference compound] | – | no effect; also recorded: not having any effect on tail-flick latency by itself

Reference: US7732398B2, “Medicinal uses of mu-opioid receptor agonists” (Cornell Research Foundation, Inc., priority 2000, dated 2010)
